Source: ChEMBL document CHEMBL6087390, “Pyridine and Pyrimidine hybrids as privileged scaffolds in antimalarial drug discovery: A recent development” (Bioorg Med Chem Lett, 2024)
pEC50, pIC50: −log10 of the molar value. In brackets after ≈: the same amount, converted by molar mass.

Tests used:
Plasmodium falciparum [1] = test: Antiplasmodial activity against Plasmodium falciparum W2 assessed as reduction in parasite growth after 72 hrs by SYBR Green fluorescence assay; assay type: functional, organism-based; details: W2, 72 h
Plasmodium falciparum [2] = test: microbe, parasite or virus in culture; details: 3D7, 72 h
Plasmodium falciparum [3] = test: Antimalarial activity against Plasmodium falciparum K1 assessed as reduction in parasite growth incubated for 48 hrs by SYBR Green I staining based analysis; assay type: functional, organism-based; details: K1, 48 h
Plasmodium falciparum [4] = test: Antimalarial activity against […] Plasmodium falciparum NF54 assessed as inhibition of parasite growth incubated for 48 hrs by SYBR green dye based flow cytometry; assay type: functional, organism-based; details: NF54, 48 h
Plasmodium falciparum [5] = test: Antimalarial activity against Plasmodium falciparum K1 assessed as parasite growth inhibition; assay type: functional, organism-based
Plasmodium falciparum [6] = test: Antimalarial activity against Plasmodium falciparum 3D7 assessed as inhibition of parasite growth incubated for 72 hrs by SYBR Green I staining based analysis; assay type: functional, organism-based; details: 3D7, 72 h
HepG2 [7] = test: Cytotoxicity against human HepG2 cells assessed as reduction in cell viability measured for 48 hrs by SRB assay; assay type: functional
Plasmodium falciparum [8] = test: Antiplasmodial activity against Plasmodium falciparum Dd2 assessed as reduction in parasite growth measured after 72 hrs by SYBR Green 1 staining based assay; assay type: functional, organism-based; details: Dd2, 72 h
Plasmodium falciparum [9] = test: Antimalarial activity against Plasmodium falciparum 3D7 assessed as inhibition of parasite growth measured after 72 hrs by SYBR Green I staining based analysis; assay type: functional, organism-based; details: 3D7, 72 h
HepG2 [10] = test: Cytotoxicity against human HepG2 cells assessed as reduction in cell growth; assay type: functional
Plasmodium falciparum [11] = test: Antiplasmodial activity against CQ-sensitive Plasmodium falciparum NF54; assay type: functional, organism-based
Plasmodium falciparum [12] = test: microbe, parasite or virus in culture; details: W2
Description: Antimalarial activity against Plasmodium falciparum W2 assessed as reduction in parasite growth

Plasmodium falciparum [13] = test: microbe, parasite or virus in culture; details: W2; remark: listed apart in the source
[14] = Cytotoxicity against african green monkey Vero cells assessed as cell viability measured after 48 hrs by MTT assay; assay type: toxicity, cell-based, Chlorocebus sabaeus; details: chlorocebus sabaeus, time 48 hrs
[15] = Cytotoxicity against African green monkey Vero cells assessed as reduction in cell growth measured after 72 hrs by MTT assay; assay type: toxicity, cell-based; details: African green monkey (Chlorocebus sabaeus)
Plasmodium falciparum [16] = test: Antiparasitic activity against Plasmodium falciparum; assay type: functional, organism-based
Plasmodium falciparum [17] = test: microbe, parasite or virus in culture; details: 3D7, 48 h

`COc1ccc(NC(=O)C(c2ccc(OC(F)(F)F)cc2)N2CCN(c3ncnc4sc5c(c34)CCCC5)CC2)cc1` (stereo not given) gave a pIC50 (Plasmodium falciparum [1]) of 7.22.
`COc1ccc(NC(=O)C(c2ccc(Cl)c(Cl)c2)N2CCN(c3ncnc4sc5c(c34)CCCC5)CC2)cc1` (stereo not given) gave a pIC50 (Plasmodium falciparum [1]) of 7.22.
In the case of `COc1ccc(NC(=O)C(c2ccc(C)cc2)N2CCN(c3ncnc4sc5c(c34)CCCC5)CC2)cc1` (stereo not given), the pIC50 (Plasmodium falciparum [1]) was 6.59.
Compound `COc1ccc(NC(=O)C(c2ccc(C(F)(F)F)cc2)N2CCN(c3ncnc4sc5c(c34)CCCC5)CC2)cc1` (stereo not given) has a pIC50 (Plasmodium falciparum [1]) of 7.30.
With `COc1ccc(NC(=O)C(c2ccc(F)c(Cl)c2)N2CCN(c3ncnc4sc5c(c34)CCCC5)CC2)cc1` (stereo not given) the pIC50 (Plasmodium falciparum [2]) was 6.00 and the pIC50 (Plasmodium falciparum [1]) was 6.92.
With `COC(=O)C1=C(Cn2cc(COc3cc(C(F)(F)F)nc4c(C(F)(F)F)cccc34)nn2)NC(=O)NC1c1ccc(OC)cc1` (stereo not given) the pIC50 (Plasmodium falciparum [3]) was under 5.30.
In the case of `Clc1ccc2c(NCCn3cc(-c4ccnc(-c5ccccn5)c4)nn3)ccnc2c1`, the pIC50 (Plasmodium falciparum [4]) was 7.05 and the pIC50 (Plasmodium falciparum [5]) was 6.57.
Compound `COC(=O)C1=C(Cn2cc(CCOc3cc(C(F)(F)F)nc4c(C(F)(F)F)cccc34)nn2)NC(=O)NC1c1ccc(F)cc1` (stereo not given) has a pIC50 (Plasmodium falciparum [3]) of under 5.30.
For `COC(=O)C1=C(Cn2cc(COc3cc(C(F)(F)F)nc4c(C(F)(F)F)cccc34)nn2)NC(=O)NC1c1ccc(F)cc1` (stereo not given), the pIC50 (Plasmodium falciparum [3]) was under 5.00.
In the case of `CC1(C)c2nc(-c3ccc(F)cc3)c(Br)n2CCN1C(=O)Cn1cc(-c2ccnc(-c3ccccn3)c2)nn1`, the pIC50 (Plasmodium falciparum [4]) was 5.17 and the pIC50 (Plasmodium falciparum [5]) was 5.41.
For `Cc1ncc(C(c2nnnn2C2CC2)N(C2CC2)C2(c3cccc(C(F)(F)F)c3)CC2)cn1` (stereo not given), the pEC50 (Plasmodium falciparum [6]) was under 4.52, the CC50 (HepG2 [7]) was over 30000 nM and the pEC50 (Plasmodium falciparum [8]) was 4.68.
Compound `CN(Cc1cccc(C(F)(F)F)c1F)C(c1cccnc1)c1nnnn1C1CCCCC1` (stereo not given) has a pEC50 (Plasmodium falciparum [9]) of 5.77 and a pEC50 (Plasmodium falciparum [8]) of 5.59.
`CC1(C)[C@@H](O)CC[C@]2(C)[C@H]3C(=O)CC4[C@@H]5C[C@@](C)(C(=O)OCc6cn(-c7ccc(C#N)nc7)nn6)CC[C@]5(C)CC[C@@]4(C)[C@]3(C)CC[C@@H]12` (stereo not given in full) gave a CC50 (HepG2 [10]) of 290000 nM and a pIC50 (Plasmodium falciparum [11]) of 5.26.
Compound `CC(=O)N(Cc1cccc(C(F)(F)F)c1)C(c1cncnc1)c1nnnn1-c1ccccc1C` (stereo not given) has a pEC50 (Plasmodium falciparum [6]) of 4.82, a CC50 (HepG2 [7]) of over 30000 nM and a pEC50 (Plasmodium falciparum [8]) of under 4.52.
For `Clc1ccc2c(NCCn3cc(-c4ccccn4)nn3)ccnc2c1`, the pIC50 (Plasmodium falciparum [4]) was 6.21 and the pIC50 (Plasmodium falciparum [5]) was 6.02.
With `CC1(C)c2nc(-c3ccc(F)cc3)c(Br)n2CCN1C(=O)Cn1cc(-c2ccccn2)nn1` the pIC50 (Plasmodium falciparum [4]) was 4.14 and the pIC50 (Plasmodium falciparum [5]) was 4.05.
`CC(C)=CCC1=C(OCc2cn(C3CC(CO)OC3n3cc(C)c(=O)[nH]c3=O)nn2)C(=O)c2ccccc2C1=O` (stereo not given) showed a CC50 (HepG2 [10]) of 60700 nM.
In the case of `CCN(CC)Cc1cc(Nc2ccnc3cc(Cl)ccc23)ccc1O` [AMODIAQUINE], the pIC50 (Plasmodium falciparum [12]) was 7.22 and the pIC50 (Plasmodium falciparum [13]) was 7.15.
In the case of `CCN(CC)CCCC(C)Nc1ccnc2cc(Cl)ccc12` (stereo not given) [CHLOROQUINE], the CC50 at 48 h [14] was 393000 nM, the CC50 (HepG2 [10]) was 45400 nM and the IC50 at 72 h [15] was 907000 nM.
In the case of `CC[C@H]1CN2CCc3cc(OC)c(OC)cc3[C@@H]2C[C@@H]1C[C@H]1NCCc2cc(OC)c(OC)cc21` [EMETINE], the pIC50 (Plasmodium falciparum [4]) was 6.60 and the pIC50 (Plasmodium falciparum [5]) was 6.19.
With `OC(c1cc(C(F)(F)F)nc2c(C(F)(F)F)cccc12)C1CCCCN1` (stereo not given) [MEFLOQUINE] the pIC50 (Plasmodium falciparum [12]) was 8.00 and the IC50 at 72 h [15] was 15000 nM.
Work on `C=C[C@H]1CN2CC[C@H]1C[C@H]2[C@H](O)c1ccnc2ccc(OC)cc12` [QUININE] yielded a pIC50 (Plasmodium falciparum [13]) of 6.08, a pIC50 (Plasmodium falciparum [16]) of 5.57 and an IC50 (Plasmodium falciparum [17]) of 0.26 µg/mL (≈ 0.801 µM).
